Laboratory results reported in US20060167099A1, “Use of compositions that increase glutamate receptor activity in treatment of brain injury” (priority 2004, published 2006).
Entries after “also recorded” stand apart in the source; their conditions may differ.

Assays:
[1] = tested on: NMDAR; details: NMDA 20 mg/kg i.p. 1 and 2 days after CHI; assessed 7 and 14 days postinjury (P=0.05 and 0.016)
Text: Trauma Model. We used 8- to 12-week-old male Sabra mice (30-35 g) kept under controlled temperature and light conditions with food and water available ad libitum. The study was approved by the Institutional Animal Care Committee of the Hebrew University. Experimental CHI was induced by using a modified weight-drop device developed in our laboratory (Chen et al., J. Neurotrauma 13, 557-568 (1996); Yatziv et al., J. Cereb. Blood Flow Metab. 22, 971-978 (2002)). Briefly, after induction of ether anesthesia, a midline longitudinal incision was performed, the skin was retracted and the skull was exposed. The left anterior frontal area was identified and a Teflon tipped cone (2-mm diameter) was placed 1 mm lateral to the midline, in the midcoronal plane. The head was held in place manually and a 75-g weight was dropped on the cone from a height of 18 cm, resulting in a focal injury to the left hemisphere. After trauma, the mice received supporting oxygenation with 95% O2 for no longer than 2 min and were then returned to their cages. […]
(§1) Drug Treatments. […] The three groups were repeatedly evaluated for neurobehavioral deficits over a 2-week period (see below). […] Cognitive function was evaluated in head-injured and intact […] administered with either NMDA 20 mg/kg or saline 24 and again 48 h postinjury and tested 14 days later for performance in the object recognition test (see below).

[2] = tested on: NMDAR; assay: Object recognition test 14 days after CHI; format: in vivo, mice; details: for Percent of exploration time at the novel object: 4 h after baseline; for Proportion of time exploring two objects at baseline: baseline with two identical objects
Text: Trauma Model. We used 8- to 12-week-old male Sabra mice (30-35 g) kept under controlled temperature and light conditions with food and water available ad libitum. The study was approved by the Institutional Animal Care Committee of the Hebrew University. Experimental CHI was induced by using a modified weight-drop device developed in our laboratory (Chen et al., J. Neurotrauma 13, 557-568 (1996); Yatziv et al., J. Cereb. Blood Flow Metab. 22, 971-978 (2002)). Briefly, after induction of ether anesthesia, a midline longitudinal incision was performed, the skin was retracted and the skull was exposed. The left anterior frontal area was identified and a Teflon tipped cone (2-mm diameter) was placed 1 mm lateral to the midline, in the midcoronal plane. The head was held in place manually and a 75-g weight was dropped on the cone from a height of 18 cm, resulting in a focal injury to the left hemisphere. After trauma, the mice received supporting oxygenation with 95% O2 for no longer than 2 min and were then returned to their cages. Sham controls received anesthesia and skin incision only. For autoradiographic studies, groups of four to five animals per time point were killed 15 min, 1, 4, 8, or 24 h, or 7 days postinjury and brains were quickly removed and frozen on dry ice.
as §1
Evaluation of Performance in the Object Recognition Test. The object recognition test was performed as originally described by Ennaceur and Delacour (Ennaceur & Delacour, Behav. Brain Res. 31, 47-59 (1988)). In the first part of the test (14 days after CHI) mice were placed in the testing cage (a glass aquarium-like transparent box of 60×60 cm) for 1 h habituation. On the following day they were put back into the same cage with two identical objects. The cumulative time spent by the mouse at each of the objects was recorded manually during a 5-min interval by an observer blinded to the treatment received. Four hours later, the mice were reintroduced into the cage, where one of the two objects was replaced by a new one. The time (of 5 min total) spent at each of the objects was recorded. The basic measure is the percent of the total time spent by mice in exploring an object during the testing period, whereby normal healthy rodents will spend relatively more time exploring a new object than a familiar, i.e., “memorized” object.

[3] = tested on: intact mice; assay: NMDA dose-response experiment in intact mice (tolerability); details: i.p.

CN[C@H](CC(=O)O)C(=O)O [NMDA, N-methyl-D-aspartate]
dNSS (extent of neurological recovery) compared to vehicle-treated CHI mice [1]: significantly higher; also recorded: significantly accelerated | Object recognition performance compared to vehicle-treated CHI animals ([2]; CHI mice, NMDA 20 mg/kg 24 and 48 h postinjury, 14 days after CHI (P<0.0001)): significantly higher percentage; also recorded: significantly better | Percent of exploration time at the novel object ([2]; CHI mice, NMDA 20 mg/kg 24 and 48 h postinjury, tested 14 days after CHI): ≈ 70% | Proportion of time exploring two objects at baseline ([2]; CHI+NMDA group): ≈ 50% | Effect on object recognition performance of intact (naive) animals ([2]; intact animals, NMDA 20 mg/kg): no effect | Percent of exploration time at the novel object ([2]; intact mice treated with NMDA 20 mg/kg): ≈ 70% | Proportion of time exploring two objects at baseline ([2]; naive+NMDA group): ≈ 50% | Doses at which significant mortality was observed ([3]; doses tested between 20 and 100 mg/kg): above 60 mg/kg | Behavioural effects and mortality at the lowest dose ([3]; lowest dose of 20-100 mg/kg range (20 mg/kg)): hyperactivity and some stereotypy but no convulsions or mortality
